# Experimental data as given in US10174067B2, “Type of cytidine derivative and application thereof” (priority 2014, dated 2019).
# Marks after values point to notes of the source that are not given here.
# Tests used:
# [1] = tested on: HCT-116 colon cancer xenografts; test: Tumor growth inhibition of HCT-116 colon cancer xenografts in tumor-bearing nude mice (tumor volume, TGI %, RTV, T/C %); type: in vivo, Balb/c Nude mice; conditions: for T/C % (relative tumor proliferation rate): dosage 400 mg/kg (G10-G16 study);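 on T/C % (relative tumor proliferation rate): control C is the vehicle-treated model control group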
# Protocol: 4.1 Tumor cells: colon cancer HCT-116 cells, purchased from the Institute of Cell Biology, Chinese Academy of Sciences. The cells were incubated by F-12 medium (containing 10% FBS) in carbon dioxide incubator at 37° C. and in saturated humidity, with 5% CO2 and 95% air in volume fraction. Before inoculation, the cells at logarithmic phase were taken, and digested with 0.25% trypsin, washed once with PBS and resuspended in PBS for counting. The cells were resuspended in serum-free medium and adjusted to about 3×10^7 cell/mL.
# The grouping is as follows:
# The formations of tumor at the inoculation site of each group of nude mice were observed. The diameter of tumor nodule (D) was measured three times a week with round hole ruler, and the volume of tumor nodule (V) was calculated according to the following formula: […].
# Anti-tumor activity was evaluated by tumor growth inhibition rate TGI (%) and relative tumor proliferation rate T/C (%).
# The relative tumor volume (RTV) was calculated as: RTV=Vt/V0, where V0 was the tumor volume when they were grouped and administered, and Vt was the tumor volume at the time of measurement.
# The relative proliferation rate T/C (%) was calculated as: […].
# TRTV: RTV of the treatment group; CRTV: RTV of the control group.
# P<0.05 was considered as significant difference.
# [2] = Protocol: To determine the growth inhibition effect and toxicity of the cytidine derivative samples of the present invention on the transplanted tumor of nude mice bearing colon cancer HCT-116.
# The corresponding amount of test substance was taken in a 5 mL glass tube and dissolved in ethanol with a 5 mm magnetic stirrer for stirring. After dissolving completely, Cremophor EL was added with continuous stirring. The marked amount of saline was added and mixed evenly before use. The volume ratio of ethanol, Cremophor EL, and physiological saline was 5:5:90.
# Varieties and lines; Balb/c Nude mice; level: SPF; sex: female.
# 4.2 Animal inoculation and grouping: Each nude mouse was inoculated subcutaneously with 0.1 mL of cell suspension (3×10^6 cell/mouse) at right side of hind limb in a sterile stale. When the tumor grew to about 60-150 mm^3, the nude mice with similar tumor volume and desirable shape were selected (it would be better to select single spherical shape, no irregular shape or multiple tumors grouped together) for grouping, 6 mice a group. The grouping is as follows:
# The control group, namely the model control group, was injected with a mixture of ethanol, Cremophor EL, and saline (5:5:90).
# Those mice were weighed three times a week.
# All clinical symptoms of each animal should be recorded at the beginning of the test and during the test. The observations should be made at the same time each day.
# An animal would be killed by CO2 when its weight loss was more than 20%, when it was about to die, or when its tumor volume exceeded 2800 mm^3. The tumor was separated and weighed, and the animal was autopsied and observed to evaluate and record whether there were pathological changes in the organs.
# The data were expressed as Mean±SEM unless specially provided; Non-pairing T test was performed for the data between the two groups. P<0.05 was considered as significant difference.
# [3] = Day 0, G10-G16 groups, single IP 400 mg/kg
# [4] = Day 0, G10-G16 groups, single IP 400 mg/kg, Mean±SEM
# [5] = Day 1, G10-G16 groups, single IP 400 mg/kg, Mean±SEM
# [6] = Day 2, G10-G16 groups, single IP 400 mg/kg, Mean±SEM
# [7] = Day 4, G10-G16 groups, single IP 400 mg/kg, Mean±SEM
# [8] = Day 7, G10-G16 groups, single IP 400 mg/kg, Mean±SEM
# [9] = Day 9, G10-G16 groups, single IP 400 mg/kg, Mean±SEM
# [10] = Day 11, G10-G16 groups, single IP 400 mg/kg, Mean±SEM
# [11] = Day 14, G10-G16 groups, single IP 400 mg/kg, Mean±SEM
# [12] = Day 16, G10-G16 groups, single IP 400 mg/kg, Mean±SEM
# [13] = Day 18, G10-G16 groups, single IP 400 mg/kg, Mean±SEM
# [14] = Day 21, G10-G16 groups, single IP 400 mg/kg, Mean±SEM
# [15] = Day 23, G10-G16 groups, single IP 400 mg/kg, Mean±SEM
# [16] = Day 25, G10-G16 groups, single IP 400 mg/kg, Mean±SEM
# [17] = Day 28, G10-G16 groups, single IP 400 mg/kg, Mean±SEM
# [18] = Day 30, G10-G16 groups, single IP 400 mg/kg, Mean±SEM
compound,measurement,setting,value
O=C(COc1nc(Cl)c(Cl)cc1Cl)OC[C@H]1O[C@@H](n2cc(Br)c(NC(=O)OCc3ccccc3)nc2=O)C(F)(F)C1O (stereo partly shown) [Compound G10],Day 0 (RTV),[1]; [3],1.00
same,"Tumor volume, Day 0",[1]; [4],83.23 ± 12.39 mm^3
same,T/C % (relative tumor proliferation rate),[1]; Day 0,0.00%
same,Day 1 (TGI %),"[1]; Day 1, G10-G16 groups, single IP 400 mg/kg",50.51%
same,Day 1 (RTV),[1]; [5],1.06 ± 0.12
same,"Tumor volume, Day 1",[1]; [5],89.33 ± 14.35** mm^3
same,T/C % (relative tumor proliferation rate),[1]; Day 1,63.00%
same,Day 2 (TGI %),"[1]; Day 2, G10-G16 groups, single IP 400 mg/kg",51.72%
same,Day 2 (RTV),[1]; [6],1.27 ± 0.16
same,"Tumor volume, Day 2",[1]; [6],108.22 ± 18.22** mm^3
same,T/C % (relative tumor proliferation rate),[1]; Day 2,61.29%
same,Day 4 (TGI %),"[1]; Day 4, G10-G16 groups, single IP 400 mg/kg",48.03%
same,Day 4 (RTV),[1]; [7],1.83 ± 0.20
same,"Tumor volume, Day 4",[1]; [7],154.33 ± 27.49** mm^3
same,T/C % (relative tumor proliferation rate),[1]; Day 4,66.28%
same,Day 7 (TGI %),"[1]; Day 7, G10-G16 groups, single IP 400 mg/kg",46.09%
same,Day 7 (RTV),[1]; [8],2.82 ± 0.25
same,"Tumor volume, Day 7",[1]; [8],233.13 ± 37.06** mm^3
same,T/C % (relative tumor proliferation rate),[1]; Day 7,69.09%
same,Day 9 (TGI %),"[1]; Day 9, G10-G16 groups, single IP 400 mg/kg",33.35%
same,Day 9 (RTV),[1]; [9],4.84 ± 0.55
same,"Tumor volume, Day 9",[1]; [9],393.47 ± 68.53 mm^3
same,T/C % (relative tumor proliferation rate),[1]; Day 9,86.30%
same,Day 11 (TGI %),"[1]; Day 11, G10-G16 groups, single IP 400 mg/kg",38.55%
same,Day 11 (RTV),[1]; [10],7.60 ± 0.85
same,"Tumor volume, Day 11",[1]; [10],599.83 ± 84* mm^3
same,T/C % (relative tumor proliferation rate),[1]; Day 11,82.36%
same,Day 14 (TGI %),"[1]; Day 14, G10-G16 groups, single IP 400 mg/kg",30.82%
same,Day 14 (RTV),[1]; [11],13.37 ± 2.23
same,"Tumor volume, Day 14",[1]; [11],996.32 ± 91.77* mm^3
same,T/C % (relative tumor proliferation rate),[1]; Day 14,96.62%
same,Day 16 (TGI %),"[1]; Day 16, G10-G16 groups, single IP 400 mg/kg",24.07%
same,Day 16 (RTV),[1]; [12],18.63 ± 3.27
same,"Tumor volume, Day 16",[1]; [12],1375.20 ± 109.23* mm^3
same,T/C % (relative tumor proliferation rate),[1]; Day 16,107.93%
same,Day 18 (TGI %),"[1]; Day 18, G10-G16 groups, single IP 400 mg/kg",18.11%
same,Day 18 (RTV),[1]; [13],22.45 ± 4.24
same,"Tumor volume, Day 18",[1]; [13],1636.39 ± 114.98 mm^3
same,T/C % (relative tumor proliferation rate),[1]; Day 18,117.59%
same,Day 21 (TGI %),"[1]; Day 21, G10-G16 groups, single IP 400 mg/kg",14.51%
same,Day 21 (RTV),[1]; [14],29.09 ± 6.00
same,"Tumor volume, Day 21",[1]; [14],2090.18 ± 124.45 mm^3
same,T/C % (relative tumor proliferation rate),[1]; Day 21,124.28%
same,Day 23 (TGI %),"[1]; Day 23, G10-G16 groups, single IP 400 mg/kg",10.21%
same,Day 23 (RTV),[1]; [15],29.56 ± 5.99
same,"Tumor volume, Day 23",[1]; [15],2120.63 ± 111.71 mm^3
same,T/C % (relative tumor proliferation rate),[1]; Day 23,149.49%
same,Day 25 (TGI %),"[1]; Day 25, G10-G16 groups, single IP 400 mg/kg",11.18%
same,Day 25 (RTV),[1]; [16],31.95 ± 6.61
same,"Tumor volume, Day 25",[1]; [16],2293.73 ± 132.31 mm^3
same,T/C % (relative tumor proliferation rate),[1]; Day 25,147.80%
same,Day 28 (TGI %),"[1]; Day 28, G10-G16 groups, single IP 400 mg/kg",10.61%
same,Day 28 (RTV),[1]; [17],35.86 ± 7.35
same,"Tumor volume, Day 28",[1]; [17],2404.00 ± 127.93 mm^3
same,T/C % (relative tumor proliferation rate),[1]; Day 28,169.72%
same,Day 30 (TGI %),"[1]; Day 30, G10-G16 groups, single IP 400 mg/kg",10.17%
same,Day 30 (RTV),[1]; [18],40.27 ± 10.35
same,"Tumor volume, Day 30",[1]; [18],2520.69 ± 108.41 mm^3
same,T/C % (relative tumor proliferation rate),[1]; Day 30,162.31%
same,"Weight change rate, Day 0",[2]; [3],0.00%
same,"Weight of mice, Day 0",[2]; [4],19.90 ± 0.17 g
same,"Weight change rate, Day 1",[2]; [5],−1.76 ± 0.49%
same,"Weight of mice, Day 1",[2]; [5],19.55 ± 0.21 g
same,"Weight change rate, Day 2",[2]; [6],−0.85 ± 0.43%
same,"Weight of mice, Day 2",[2]; [6],19.73 ± 0.25 g
same,"Weight change rate, Day 4",[2]; [7],1.94 ± 0.91 %
same,"Weight of mice, Day 4",[2]; [7],20.28 ± 0.19 g
same,"Weight change rate, Day 7",[2]; [8],0.61 ± 0.70 %
same,"Weight of mice, Day 7",[2]; [8],20.02 ± 0.09 g
same,"Weight change rate, Day 9",[2]; [9],3.04 ± 1.24 %
same,"Weight of mice, Day 9",[2]; [9],20.50 ± 0.24 g
same,"Weight change rate, Day 11",[2]; [10],2.77 ± 1.51%
same,"Weight of mice, Day 11",[2]; [10],20.45 ± 0.32 g
same,"Weight change rate, Day 14",[2]; [11],−1.53 ± 2.52%
same,"Weight of mice, Day 14",[2]; [11],19.60 ± 0.57 g
same,"Weight change rate, Day 16",[2]; [12],−2.19 ± 3.22%
same,"Weight of mice, Day 16",[2]; [12],19.47 ± 0.68 g
same,"Weight change rate, Day 18",[2]; [13],−1.80 ± 3.13%
same,"Weight of mice, Day 18",[2]; [13],19.55 ± 0.70 g
same,"Weight change rate, Day 21",[2]; [14],−2.23 ± 3.14%
same,"Weight of mice, Day 21",[2]; [14],19.47 ± 0.72 g
same,Day 22 Mortality,"[2]; Day 22, single IP dose (mg/kg)",0%
same,"Weight change rate, Day 23",[2]; [15],−2.41 ± 3.42%
same,"Weight of mice, Day 23",[2]; [15],19.43 ± 0.78 g
same,"Weight change rate, Day 25",[2]; [16],−1.80 ± 3.06%
same,"Weight of mice, Day 25",[2]; [16],19.55 ± 0.69 g
same,"Weight change rate, Day 28",[2]; [17],−1.77 ± 2.66%
same,"Weight of mice, Day 28",[2]; [17],19.54 ± 0.67 g
same,"Weight change rate, Day 30",[2]; [18],−1.95 ± 3.04%
same,"Weight of mice, Day 30",[2]; [18],19.55 ± 0.79 g
same,clinical symptoms,"[2]; after single IP dose, compared with model control group",no significant differences in clinical symptoms
